# Patent US10442796B2, “2,3,5-substituted thiophene compound as protein kinase inhibitor” (KOREA INSTITUTE OF SCIENCE AND TECHNOLOGY, priority 2016, dated 2019)
# Key:
# Experiment in all cases: Kinase inhibitory activity, full kinase panel
# Format in all cases: biochemical
# Details in all cases: single concentration of 1 μM, read-out: %Inhibitory ability
# PRKX = PRKX (Homo sapiens, UniProt P51817)
# Protocol: (§1) In order to measure inhibitory activity (% inhibitory ability) against a protein kinase with respect to the compound of the present invention, a biochemical assay was performed in a full kinase panel shown in the following Table 1. As an experimental compound, the (S)-5-((3-fluorophenyl)ethynyl)-N-(piperidin-3-yl)-3-ureidothiophene-2-carboxamide synthesized in Example 24 was used.
# AURKB = AURKB (Homo sapiens, UniProt Q96GD4)
# Protocol: as §1
# PDGFRA = PDGFRA (Homo sapiens, UniProt P16234)
# Sequence of PDGFRA (P16234 24-1089): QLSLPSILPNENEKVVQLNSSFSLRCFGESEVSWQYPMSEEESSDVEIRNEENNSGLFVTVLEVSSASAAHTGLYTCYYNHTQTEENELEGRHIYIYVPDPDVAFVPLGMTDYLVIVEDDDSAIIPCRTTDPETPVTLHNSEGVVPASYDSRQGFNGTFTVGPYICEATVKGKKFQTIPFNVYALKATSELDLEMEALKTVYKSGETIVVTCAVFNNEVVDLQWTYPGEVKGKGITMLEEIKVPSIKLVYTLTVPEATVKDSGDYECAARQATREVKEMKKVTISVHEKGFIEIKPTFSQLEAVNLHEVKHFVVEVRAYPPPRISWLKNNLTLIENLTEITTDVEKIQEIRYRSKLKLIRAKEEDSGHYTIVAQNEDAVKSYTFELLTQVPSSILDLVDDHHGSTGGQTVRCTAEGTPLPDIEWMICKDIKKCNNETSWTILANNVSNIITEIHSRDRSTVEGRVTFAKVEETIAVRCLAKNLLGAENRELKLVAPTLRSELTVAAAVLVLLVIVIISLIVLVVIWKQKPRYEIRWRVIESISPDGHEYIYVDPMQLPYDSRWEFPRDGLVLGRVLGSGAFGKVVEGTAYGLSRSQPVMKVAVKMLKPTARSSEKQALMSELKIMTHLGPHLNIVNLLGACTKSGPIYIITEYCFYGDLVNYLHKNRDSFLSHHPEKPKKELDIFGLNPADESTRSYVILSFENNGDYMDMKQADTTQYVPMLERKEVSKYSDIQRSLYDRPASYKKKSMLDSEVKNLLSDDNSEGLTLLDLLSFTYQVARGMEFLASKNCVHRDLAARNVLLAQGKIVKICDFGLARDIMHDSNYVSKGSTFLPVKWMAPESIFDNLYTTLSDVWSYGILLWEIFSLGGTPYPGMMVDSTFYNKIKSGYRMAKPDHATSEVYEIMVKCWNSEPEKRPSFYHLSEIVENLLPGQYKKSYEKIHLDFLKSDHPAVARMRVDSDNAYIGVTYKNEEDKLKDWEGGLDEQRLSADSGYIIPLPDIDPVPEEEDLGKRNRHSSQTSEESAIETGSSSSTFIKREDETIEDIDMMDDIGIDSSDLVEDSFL
# Protocol: as §1
# CSF1R = CSF1R (Homo sapiens, UniProt P07333)
# Sequence of CSF1R (P07333 20-972, species assumed): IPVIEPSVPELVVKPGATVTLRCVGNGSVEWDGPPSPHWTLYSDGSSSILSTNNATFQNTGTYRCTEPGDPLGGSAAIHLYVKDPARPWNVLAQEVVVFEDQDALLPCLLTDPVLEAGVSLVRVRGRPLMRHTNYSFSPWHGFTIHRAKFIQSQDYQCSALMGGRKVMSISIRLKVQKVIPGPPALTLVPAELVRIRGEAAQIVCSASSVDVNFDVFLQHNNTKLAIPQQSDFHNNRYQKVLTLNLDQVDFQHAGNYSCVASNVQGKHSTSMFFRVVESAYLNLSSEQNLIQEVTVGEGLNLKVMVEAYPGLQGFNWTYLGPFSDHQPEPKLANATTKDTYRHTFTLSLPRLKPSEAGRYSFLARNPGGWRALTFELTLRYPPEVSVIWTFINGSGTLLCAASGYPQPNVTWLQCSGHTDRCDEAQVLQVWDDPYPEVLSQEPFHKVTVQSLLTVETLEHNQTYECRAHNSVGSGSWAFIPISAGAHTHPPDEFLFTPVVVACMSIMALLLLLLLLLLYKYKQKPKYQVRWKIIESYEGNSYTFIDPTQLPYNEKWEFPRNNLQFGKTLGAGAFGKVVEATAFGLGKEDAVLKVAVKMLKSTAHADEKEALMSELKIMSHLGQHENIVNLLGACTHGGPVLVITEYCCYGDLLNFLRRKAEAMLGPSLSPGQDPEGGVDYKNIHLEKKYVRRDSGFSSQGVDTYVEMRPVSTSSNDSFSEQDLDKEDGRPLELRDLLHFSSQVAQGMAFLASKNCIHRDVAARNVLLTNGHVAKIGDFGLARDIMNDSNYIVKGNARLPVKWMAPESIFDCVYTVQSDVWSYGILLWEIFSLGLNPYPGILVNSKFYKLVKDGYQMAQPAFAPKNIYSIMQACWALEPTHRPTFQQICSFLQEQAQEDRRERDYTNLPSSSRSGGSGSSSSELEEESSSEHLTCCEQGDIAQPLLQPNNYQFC
# Protocol: as §1
# LCK = LCK (Homo sapiens, UniProt P06239)
# Protocol: as §1
# MEK3 = MEK3 (Homo sapiens, UniProt P46734)
# Protocol: as §1
# FAK = FAK (Homo sapiens, UniProt Q05397)
# Protocol: as §1
# DCAMKL1 = DCAMKL1 (Homo sapiens, UniProt O15075)
# Sequence of DCAMKL1 (O15075 whole entry, species assumed): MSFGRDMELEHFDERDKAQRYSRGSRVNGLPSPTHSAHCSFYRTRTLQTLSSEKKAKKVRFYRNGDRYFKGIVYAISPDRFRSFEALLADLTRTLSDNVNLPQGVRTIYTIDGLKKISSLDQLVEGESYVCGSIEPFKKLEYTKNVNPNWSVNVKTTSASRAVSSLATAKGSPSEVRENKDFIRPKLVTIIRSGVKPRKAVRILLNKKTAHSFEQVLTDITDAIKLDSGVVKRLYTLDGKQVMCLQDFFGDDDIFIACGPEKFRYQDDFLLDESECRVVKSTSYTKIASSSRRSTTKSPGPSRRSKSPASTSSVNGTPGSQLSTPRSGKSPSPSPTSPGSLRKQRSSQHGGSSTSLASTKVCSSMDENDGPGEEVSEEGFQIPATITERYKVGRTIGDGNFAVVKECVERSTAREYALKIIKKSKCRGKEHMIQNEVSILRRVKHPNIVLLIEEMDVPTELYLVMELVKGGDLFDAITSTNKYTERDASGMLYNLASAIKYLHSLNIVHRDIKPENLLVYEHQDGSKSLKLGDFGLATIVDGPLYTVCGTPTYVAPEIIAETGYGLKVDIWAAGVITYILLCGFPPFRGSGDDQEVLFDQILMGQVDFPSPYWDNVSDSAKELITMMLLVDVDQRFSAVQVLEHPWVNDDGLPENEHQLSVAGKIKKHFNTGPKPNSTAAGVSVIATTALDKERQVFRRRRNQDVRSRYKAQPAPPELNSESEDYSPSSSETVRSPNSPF
# Protocol: as §1
# DAPK2 = DAPK2 (Homo sapiens, UniProt Q9UIK4)
# Protocol: as §1
# PHKG1 = PHKG1 (Homo sapiens, UniProt Q16816)
# Protocol: as §1
# CHEK1 = CHEK1 (Homo sapiens, UniProt O14757)
# Protocol: as §1
# DAPK1 = DAPK1 (Homo sapiens, UniProt P53355)
# Protocol: as §1
# IRAK4 = IRAK4 (Homo sapiens, UniProt Q9NWZ3)
# Protocol: as §1
# MINK = MINK (Homo sapiens, UniProt Q8N4C8)
# Protocol: as §1
# MAP4K4 = MAP4K4 (Homo sapiens, UniProt O95819)
# Protocol: as §1
# TGFBR2 = TGFBR2 (Homo sapiens, UniProt P37173)
# Protocol: as §1
# BIKE = BIKE (Homo sapiens, UniProt Q9NSY1)
# Protocol: as §1
# TXK = TXK (Homo sapiens, UniProt P42681)
# Sequence of TXK (P42681 whole entry, species assumed): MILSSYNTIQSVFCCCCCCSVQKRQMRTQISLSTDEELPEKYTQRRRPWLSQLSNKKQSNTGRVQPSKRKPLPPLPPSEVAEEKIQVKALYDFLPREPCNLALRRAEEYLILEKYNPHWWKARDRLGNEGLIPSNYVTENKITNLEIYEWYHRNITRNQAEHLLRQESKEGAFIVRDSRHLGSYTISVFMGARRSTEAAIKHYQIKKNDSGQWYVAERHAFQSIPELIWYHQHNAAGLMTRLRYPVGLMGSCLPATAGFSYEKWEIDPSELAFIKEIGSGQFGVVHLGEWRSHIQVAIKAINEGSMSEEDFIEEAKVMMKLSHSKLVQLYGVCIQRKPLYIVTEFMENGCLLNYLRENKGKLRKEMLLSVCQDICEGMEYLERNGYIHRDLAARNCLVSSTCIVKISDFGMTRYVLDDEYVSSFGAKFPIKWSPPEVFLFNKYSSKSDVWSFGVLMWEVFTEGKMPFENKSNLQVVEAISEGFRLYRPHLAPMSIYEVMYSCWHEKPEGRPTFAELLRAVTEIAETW
# Protocol: as §1
# SBK1 = SBK1 (Homo sapiens, UniProt Q52WX2)
# Sequence of SBK1 (Q52WX2 whole entry): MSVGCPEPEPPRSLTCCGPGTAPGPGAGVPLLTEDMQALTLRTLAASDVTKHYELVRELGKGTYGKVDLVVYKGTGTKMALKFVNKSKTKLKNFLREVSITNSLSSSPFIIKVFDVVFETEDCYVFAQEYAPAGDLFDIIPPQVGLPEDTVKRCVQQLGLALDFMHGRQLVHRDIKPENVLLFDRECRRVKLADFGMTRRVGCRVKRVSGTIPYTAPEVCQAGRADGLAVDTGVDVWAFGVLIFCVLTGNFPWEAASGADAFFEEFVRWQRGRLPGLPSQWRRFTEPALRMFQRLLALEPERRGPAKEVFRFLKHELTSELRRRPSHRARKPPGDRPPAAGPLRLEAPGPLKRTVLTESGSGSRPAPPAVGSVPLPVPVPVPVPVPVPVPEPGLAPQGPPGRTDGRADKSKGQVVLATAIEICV
# Protocol: as §1
# AXL = AXL (Homo sapiens, UniProt P30530)
# Protocol: as §1
# MST4 = MST4 (Homo sapiens, UniProt Q9P289)
# Protocol: as §1
# SRPK1 = SRPK1 (Homo sapiens, UniProt Q96SB4)
# Protocol: as §1
# TRKA = TRKA (Homo sapiens, UniProt P04629)
# Protocol: as §1
# DRAK2 = DRAK2 (Homo sapiens, UniProt O94768)
# Protocol: as §1
# RIOK1 = RIOK1 (Homo sapiens, UniProt Q9BRS2)
# Sequence of RIOK1 (Q9BRS2 whole entry): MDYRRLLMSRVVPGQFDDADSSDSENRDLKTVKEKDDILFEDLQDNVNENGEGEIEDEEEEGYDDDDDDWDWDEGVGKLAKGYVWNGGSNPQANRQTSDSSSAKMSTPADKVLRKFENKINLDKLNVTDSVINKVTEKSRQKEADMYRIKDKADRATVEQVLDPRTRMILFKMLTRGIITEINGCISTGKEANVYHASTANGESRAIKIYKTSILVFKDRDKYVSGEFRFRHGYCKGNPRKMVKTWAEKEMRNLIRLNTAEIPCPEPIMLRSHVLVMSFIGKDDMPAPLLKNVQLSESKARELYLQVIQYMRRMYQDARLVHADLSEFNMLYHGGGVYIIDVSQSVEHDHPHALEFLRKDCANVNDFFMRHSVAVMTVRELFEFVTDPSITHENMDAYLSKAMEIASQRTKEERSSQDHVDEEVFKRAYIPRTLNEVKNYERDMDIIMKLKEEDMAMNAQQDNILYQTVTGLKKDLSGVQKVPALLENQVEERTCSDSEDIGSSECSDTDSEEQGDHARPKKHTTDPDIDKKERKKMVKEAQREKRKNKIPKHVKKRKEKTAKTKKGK
# Protocol: as §1
# DRAK1 = DRAK1 (Homo sapiens, UniProt Q9UEE5)
# Protocol: as §1
# MST2 = MST2 (Homo sapiens, UniProt Q13188)
# Protocol: as §1
# MEK1 = MEK1 (Homo sapiens, UniProt Q02750)
# Protocol: as §1
# OSR1 = OSR1 (Homo sapiens, UniProt O95747)
# Protocol: as §1
# MKNK2 = MKNK2 (Homo sapiens, UniProt Q9HBH9)
# Protocol: as §1
# MAP3K2 = MAP3K2 (Homo sapiens, UniProt Q9Y2U5)
# Protocol: as §1
# TNIK = TNIK (Homo sapiens, UniProt Q9UKE5)
# Protocol: as §1
# FGR = FGR (Homo sapiens, UniProt P09769)
# Protocol: as §1
# RET = RET (Homo sapiens, UniProt P07949)
# Protocol: as §1
# PRKG2 = PRKG2 (Homo sapiens, UniProt Q13237)
# Protocol: as §1
# LOK = LOK (Homo sapiens, UniProt O94804)
# Protocol: as §1
# KIT = KIT (Homo sapiens, UniProt P10721)
# Protocol: as §1
# FLT3 = FLT3 (Homo sapiens, UniProt P36888)
# Protocol: as §1
# MAPKAPK5 = MAPKAPK5 (Homo sapiens, UniProt Q8IW41)
# Protocol: as §1
# MLK3 = MLK3 (Homo sapiens, UniProt Q16584)
# Protocol: as §1
# PIP5K2B = PIP5K2B (Homo sapiens, UniProt P78356)
# Protocol: as §1
# RIOK3 = RIOK3 (Homo sapiens, UniProt O14730)
# Sequence of RIOK3 (O14730 whole entry): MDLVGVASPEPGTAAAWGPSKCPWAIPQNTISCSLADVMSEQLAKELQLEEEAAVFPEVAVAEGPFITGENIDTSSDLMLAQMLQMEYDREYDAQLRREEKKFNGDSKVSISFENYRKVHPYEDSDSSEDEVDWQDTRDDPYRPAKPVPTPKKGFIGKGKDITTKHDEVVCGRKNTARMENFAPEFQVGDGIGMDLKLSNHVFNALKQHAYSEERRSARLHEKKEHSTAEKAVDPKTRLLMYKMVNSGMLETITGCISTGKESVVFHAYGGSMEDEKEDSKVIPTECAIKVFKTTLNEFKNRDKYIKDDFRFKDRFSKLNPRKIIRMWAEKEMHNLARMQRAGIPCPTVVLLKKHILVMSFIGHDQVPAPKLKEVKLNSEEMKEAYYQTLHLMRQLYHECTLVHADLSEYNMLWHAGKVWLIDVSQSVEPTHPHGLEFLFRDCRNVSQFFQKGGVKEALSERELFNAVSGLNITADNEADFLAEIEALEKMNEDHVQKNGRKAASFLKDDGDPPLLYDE
# Protocol: as §1
structure (smiles),measurement,setting,value
"Cc1ccc(C#Cc2cc(NC(N)=O)c(C(=O)N[C@H]3CCCNC3)s2)cc1 [Example 24, (S)—N-(piperidin-3-yl)-5-(p-tolylethynyl)-3-ureidothiophene-2-carboxamide]",inhibition at 1 µM,PRKX,73%
same,inhibition at 1 µM,AURKB,66%
same,inhibition at 1 µM,PDGFRA,95.8%
same,inhibition at 1 µM,CSF1R,98.4%
same,inhibition at 1 µM,LCK,72%
same,inhibition at 1 µM,MEK3,83%
same,inhibition at 1 µM,FAK,75%
same,inhibition at 1 µM,DCAMKL1,80%
same,inhibition at 1 µM,DAPK2,88%
same,inhibition at 1 µM,PHKG1,98.4%
same,inhibition at 1 µM,CHEK1,96.1%
same,inhibition at 1 µM,DAPK1,94.4%
same,inhibition at 1 µM,IRAK4,99.8%
same,inhibition at 1 µM,MINK,97.1%
same,inhibition at 1 µM,MAP4K4,91.4%
same,inhibition at 1 µM,TGFBR2,72%
same,inhibition at 1 µM,BIKE,77%
same,inhibition at 1 µM,TXK,83%
same,inhibition at 1 µM,SBK1,66%
same,inhibition at 1 µM,AXL,87%
same,inhibition at 1 µM,MST4,83%
same,inhibition at 1 µM,SRPK1,83%
same,inhibition at 1 µM,TRKA,100%
same,inhibition at 1 µM,DRAK2,96%
same,inhibition at 1 µM,RIOK1,77%
same,inhibition at 1 µM,DRAK1,99.5%
same,inhibition at 1 µM,MST2,92.5%
same,inhibition at 1 µM,MEK1,96.3%
same,inhibition at 1 µM,OSR1,68%
same,inhibition at 1 µM,MKNK2,92.7%
same,inhibition at 1 µM,MAP3K2,97.7%
same,inhibition at 1 µM,TNIK,96.3%
same,inhibition at 1 µM,FGR,94.1%
same,inhibition at 1 µM,RET,98.7%
same,inhibition at 1 µM,PRKG2,96.6%
same,inhibition at 1 µM,LOK,71%
same,inhibition at 1 µM,KIT,99.8%
same,inhibition at 1 µM,FLT3,99.6%
same,inhibition at 1 µM,MAPKAPK5,82%
same,inhibition at 1 µM,MLK3,90.8%
same,inhibition at 1 µM,PIP5K2B,74%
same,inhibition at 1 µM,RIOK3,79%
